Laboratory results: PubChem BioAssay AID248 (DTP/NCI, 2004)
Several values for one entry are separate records, joined by “and”; a condition that tells them apart may be missing. Equal entries are not always repeated. Toxic doses and inconclusive results are not listed. No stated cut-off is given here; in the data, active means T/C of 150% or more; inactive means T/C below 125%.

Test system: L1210 leukemia ip in BDF1 mice, survival T/C
Assay: NCI In Vivo Anticancer Drug Screen. Data for tumor model L1210 Leukemia (intraperitoneal) in B6D2F1 (BDF1) mice
Settings: higher = longer survival
Method in brief: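 Each compound was tested against a transplantable tumor grown in mice. The endpoint was survival, with treated animals benchmarked against vehicle controls as a simple ratio.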

[1] = endpoint: mean survival time, dose: 100.0 mg/kg/injection, schedule: Q01DX001 (ip), vehicle: saline

Measured: T/C

OCC1=CCc2ccccc21
inactive: endpoint: mean survival time, dose: 100.0 mg/kg/injection, schedule: Q04DX002 (ip), vehicle: other 93 % of control | endpoint: mean survival time, dose: 200.0 mg/kg/injection, schedule: Q04DX002 (ip), vehicle: other 93 % of control | endpoint: mean survival time, dose: 400.0 mg/kg/injection, schedule: Q04DX002 (ip), vehicle: other 93 % of control

OCC1OC(n2cnc3ccccc32)C(O)C1O (stereo not given)
inactive: [1] 100 % of control | endpoint: mean survival time, dose: 200.0 mg/kg/injection, schedule: Q01DX001 (ip), vehicle: saline 100 % of control | endpoint: mean survival time, dose: 400.0 mg/kg/injection, schedule: Q01DX001 (ip), vehicle: saline 95 % of control

C[C@@H]1C[C@@H]([C@H](O)CC2CC(=O)NC(=O)C2)C(=O)[C@@H](C)C1
inactive: endpoint: mean survival time, dose: 1.5 mg/kg/injection, schedule: Q01DX009 (ip), vehicle: saline with Tween-80 109 % of control | endpoint: mean survival time, dose: 4.31 mg/kg/injection, schedule: Q01DX Z (ip), vehicle: carboxymethylcellulose (CMC) 104 % of control | endpoint: mean survival time, dose: 5.0 mg/kg/injection, schedule: Q01DX010 (ip), vehicle: saline 103 % of control and 107 % of control | endpoint: mean survival time, dose: 7.5 mg/kg/injection, schedule: Q01DX Z (ip), vehicle: carboxymethylcellulose (CMC) 97 % of control and 100 % of control | endpoint: mean survival time, dose: 8.63 mg/kg/injection, schedule: Q01DX Z (ip), vehicle: carboxymethylcellulose (CMC) 102 % of control | endpoint: mean survival time, dose: 10.0 mg/kg/injection, schedule: Q01DX009 (ip), vehicle: acetone 106 % of control | endpoint: mean survival time, dose: 10.0 mg/kg/injection, schedule: Q01DX010 (ip), vehicle: saline 104 % of control and 108 % of control | endpoint: mean survival time, dose: 12.5 mg/kg/injection, schedule: Q01DX Z (ip), vehicle: carboxymethylcellulose (CMC) 108 % of control | endpoint: mean survival time, dose: 15.0 mg/kg/injection, schedule: Q01DX009 (ip), vehicle: Klucel (hydroxypropylcellulose) (HPC) 114 % of control | endpoint: mean survival time, dose: 15.0 mg/kg/injection, schedule: Q01DX009 (ip), vehicle: saline 123 % of control | endpoint: mean survival time, dose: 15.0 mg/kg/injection, schedule: Q01DX Z (ip), vehicle: carboxymethylcellulose (CMC) 108 % of control and 116 % of control | endpoint: mean survival time, dose: 16.0 mg/kg/injection, schedule: Q01DX015 (ip), vehicle: saline 119 % of control | endpoint: mean survival time, dose: 17.25 mg/kg/injection, schedule: Q01DX Z (ip), vehicle: carboxymethylcellulose (CMC) 103 % of control | endpoint: mean survival time, dose: 18.0 mg/kg/injection, schedule: Q01DX015 (ip), vehicle: saline 119 % of control | endpoint: mean survival time, dose: 20.0 mg/kg/injection, schedule: Q01DX009 (ip), vehicle: acetone 119 % of control | endpoint: mean survival time, dose: 20.0 mg/kg/injection, schedule: Q01DX010 (ip), vehicle: saline 110 % of control and 114 % of control | endpoint: mean survival time, dose: 24.3 mg/kg/injection, schedule: Q02DX010 (ip), vehicle: carboxymethylcellulose (CMC) 97 % of control | endpoint: mean survival time, dose: 25.0 mg/kg/injection, schedule: Q01DX Z (ip), vehicle: carboxymethylcellulose (CMC) 106 % of control | endpoint: mean survival time, dose: 25.0 mg/kg/injection, schedule: Q02DX010 (ip), vehicle: other 112 % of control | endpoint: mean survival time, dose: 27.0 mg/kg/injection, schedule: Q01DX015 (ip), vehicle: saline 107 % of control | endpoint: mean survival time, dose: 30.0 mg/kg/injection, schedule: Q01DX009 (ip), vehicle: Klucel (hydroxypropylcellulose) (HPC) 113 % of control | endpoint: mean survival time, dose: 30.0 mg/kg/injection, schedule: Q01DX009 (ip), vehicle: saline with Tween-80 121 % of control | endpoint: mean survival time, dose: 30.0 mg/kg/injection, schedule: Q04DX003 (ip), vehicle: Klucel (hydroxypropylcellulose) (HPC) 108 % of control | endpoint: mean survival time, dose: 32.0 mg/kg/injection, schedule: Q## X004 (ip), vehicle: saline 97 % of control | endpoint: mean survival time, dose: 34.5 mg/kg/injection, schedule: Q01DX Z (ip), vehicle: carboxymethylcellulose (CMC) 121 % of control | endpoint: mean survival time, dose: 36.0 mg/kg/injection, schedule: Q01DX015 (ip), vehicle: saline 115 % of control | endpoint: mean survival time, dose: 37.5 mg/kg/injection, schedule: Q02DX008 (ip), vehicle: saline 108 % of control | endpoint: mean survival time, dose: 38.0 mg/kg/injection, schedule: Q02DX010 (ip), vehicle: other 120 % of control | endpoint: mean survival time, dose: 40.0 mg/kg/injection, schedule: Q01DX010 (ip), vehicle: saline 109 % of control and 116 % of control | endpoint: mean survival time, dose: 42.0 mg/kg/injection, schedule: Q## X032 (ip), vehicle: saline 113 % of control | endpoint: mean survival time, dose: 44.0 mg/kg/injection, schedule: Q01DX001 (ip), vehicle: saline 103 % of control | endpoint: mean survival time, dose: 45.0 mg/kg/injection, schedule: Q01DX Z (ip), vehicle: methylcellulose (MC) 106 % of control | endpoint: mean survival time, dose: 45.0 mg/kg/injection, schedule: Q04DX003 (ip), vehicle: saline 106 % of control | endpoint: mean survival time, dose: 48.0 mg/kg/injection, schedule: Q## X004 (ip), vehicle: saline 96 % of control | endpoint: mean survival time, dose: 50.0 mg/kg/injection, schedule: Q01DX Z (ip), vehicle: carboxymethylcellulose (CMC) 118 % of control | endpoint: mean survival time, dose: 56.0 mg/kg/injection, schedule: Q02DX008 (ip), vehicle: saline 115 % of control | endpoint: mean survival time, dose: 60.0 mg/kg/injection, schedule: Q01DX009 (ip), vehicle: saline 102 % of control | endpoint: mean survival time, dose: 60.0 mg/kg/injection, schedule: Q01DX Z (ip), vehicle: methylcellulose (MC) 106 % of control | endpoint: mean survival time, dose: 60.0 mg/kg/injection, schedule: Q04DX003 (ip), vehicle: Klucel (hydroxypropylcellulose) (HPC) 122 % of control | endpoint: mean survival time, dose: 64.0 mg/kg/injection, schedule: Q## X032 (ip), vehicle: saline 106 % of control and 110 % of control | endpoint: mean survival time, dose: 67.0 mg/kg/injection, schedule: Q01DX001 (ip), vehicle: saline 115 % of control | endpoint: mean survival time, dose: 72.0 mg/kg/injection, schedule: Q## X004 (ip), vehicle: saline 112 % of control | endpoint: mean survival time, dose: 80.0 mg/kg/injection, schedule: Q01DX001 (ip), vehicle: alkali diluted with saline 107 % of control | endpoint: mean survival time, dose: 81.0 mg/kg/injection, schedule: Q01DX015 (ip), vehicle: saline 123 % of control | endpoint: mean survival time, dose: 85.5 mg/kg/injection, schedule: Q02DX010 (ip), vehicle: other 117 % of control | endpoint: mean survival time, dose: 90.0 mg/kg/injection, schedule: Q01DX009 (ip), vehicle: saline 97 % of control | endpoint: mean survival time, dose: 90.0 mg/kg/injection, schedule: Q04DX003 (ip), vehicle: saline 101 % of control | endpoint: mean survival time, dose: 96.0 mg/kg/injection, schedule: Q## X032 (ip), vehicle: saline 106 % of control and 115 % of control | [1] 114 % of control | endpoint: mean survival time, dose: 100.0 mg/kg/injection, schedule: Q01DX009 (ip), vehicle: saline with Tween-80 100 % of control | endpoint: mean survival time, dose: 100.0 mg/kg/injection, schedule: Q01DX Z (ip), vehicle: carboxymethylcellulose (CMC) 117 % of control | endpoint: mean survival time, dose: 100.0 mg/kg/injection, schedule: Q04DX003 (ip), vehicle: saline with Tween-80 112 % of control | endpoint: mean survival time, dose: 108.0 mg/kg/injection, schedule: Q## X004 (ip), vehicle: saline 106 % of control | endpoint: mean survival time, dose: 120.0 mg/kg/injection, schedule: Q01DX001 (ip), vehicle: alkali diluted with saline 106 % of control | endpoint: mean survival time, dose: 120.0 mg/kg/injection, schedule: Q01DX009 (ip), vehicle: Klucel (hydroxypropylcellulose) (HPC) 96 % of control | endpoint: mean survival time, dose: 120.0 mg/kg/injection, schedule: Q01DX009 (ip), vehicle: saline with Tween-80 116 % of control | endpoint: mean survival time, dose: 126.0 mg/kg/injection, schedule: Q02DX008 (ip), vehicle: saline 112 % of control | endpoint: mean survival time, dose: 128.25 mg/kg/injection, schedule: Q02DX010 (ip), vehicle: other 74 % of control | endpoint: mean survival time, dose: 144.0 mg/kg/injection, schedule: Q## X032 (ip), vehicle: saline 118 % of control and 123 % of control | endpoint: mean survival time, dose: 162.0 mg/kg/injection, schedule: Q## X004 (ip), vehicle: saline 110 % of control | endpoint: mean survival time, dose: 180.0 mg/kg/injection, schedule: Q01DX001 (ip), vehicle: alkali diluted with saline 103 % of control | endpoint: mean survival time, dose: 180.0 mg/kg/injection, schedule: Q04DX003 (ip), vehicle: saline 97 % of control | endpoint: mean survival time, dose: 189.0 mg/kg/injection, schedule: Q02DX008 (ip), vehicle: saline 114 % of control | endpoint: mean survival time, dose: 200.0 mg/kg/injection, schedule: Q04DX003 (ip), vehicle: saline with Tween-80 103 % of control | endpoint: mean survival time, dose: 216.0 mg/kg/injection, schedule: Q## X032 (ip), vehicle: saline 113 % of control and 117 % of control | endpoint: mean survival time, dose: 240.0 mg/kg/injection, schedule: Q04DX003 (ip), vehicle: Klucel (hydroxypropylcellulose) (HPC) 116 % of control | endpoint: mean survival time, dose: 320.0 mg/kg/injection, schedule: Q## X032 (ip), vehicle: saline 110 % of control | endpoint: median survival time, dose: 25.0 mg/kg/injection, schedule: Q04DX003 (ip), vehicle: alkali diluted with saline 103 % of control | endpoint: median survival time, dose: 50.0 mg/kg/injection, schedule: Q04DX003 (ip), vehicle: alkali diluted with saline 106 % of control | endpoint: median survival time, dose: 100.0 mg/kg/injection, schedule: Q04DX003 (ip), vehicle: alkali diluted with saline 103 % of control | endpoint: median survival time, dose: 200.0 mg/kg/injection, schedule: Q04DX003 (ip), vehicle: alkali diluted with saline 106 % of control

C=CCCn1cc(C)c(=O)[nH]c1=O
inactive: endpoint: mean survival time, dose: 100.0 mg/kg/injection, schedule: Q01DX009 (ip), vehicle: Klucel (hydroxypropylcellulose) (HPC) 103 % of control | endpoint: mean survival time, dose: 200.0 mg/kg/injection, schedule: Q01DX009 (ip), vehicle: Klucel (hydroxypropylcellulose) (HPC) 116 % of control | endpoint: mean survival time, dose: 400.0 mg/kg/injection, schedule: Q01DX009 (ip), vehicle: Klucel (hydroxypropylcellulose) (HPC) 100 % of control
